Reference: patent US4331670A (priority 1979, dated 1982)

Experiments:
[1] = tested on: Rhizoctonia solani; experiment: whole plant or invertebrate; type: in vivo, Rhizoctonia solani (rice plant, Chukyo Asahi); details: in Oryza sativa, 120 h, read-out: Preventive value
[2] = tested on: Callosobruchus chinensis; experiment: Test 7: mortality of adults of Callosobruchus chinensis on film in Petri-dish; type: in vivo; details: 400 μg per Petri-dish of 9 cm, 25° C., 24 hours, read-out: Percent mortality
Procedure: Each active ingredient was dissolved in acetone to prepare each solution having the specific concentration. 1 Ml. of the solution (400 μg. of each active ingredient) was uniformly adhered on the inner bottom surface of Petri-dish having a diameter of 9 cm to form a film. In the dish, 15 of adults of Callosobruchus chinensis were charged and the dish was covered with a cap and kept in a constant temperature chamber at 25° C. for 24 hours. Each percent mortality was calculated as that of Test 6.

[3] = tested on: Pyricularia orzae; experiment: whole plant or invertebrate; type: in vivo, Pyricularia orzae (rice plant, Chukyo Asahi); details: in Oryza sativa, 120 h, read-out: Protective value
[4] = tested on: Sphaerotheca fuliginea; experiment: whole plant or invertebrate; type: in vivo, Sphaerotheca fuliginea (cucumber plant, Suyo); details: Podosphaera fuliginea, in Cucumis sativus, 240 h, read-out: Protective value
[5] = tested on: Plutella xylostella; experiment: Test 11: mortality of larvae of Plutella xylostella on treated cabbage leaf; type: in vivo; details: foliar, 192 h, leaf dipped, emulsifiable concentrate Composition No. 3, eight days, read-out: Percent mortality
From the text: Each emulsifiable concentrate of each active ingredient as Composition No. 3 was dispersed in water at a concentration of 800 ppm. Each leaf of cabbage was dipped into each emulsion for about 10 seconds and taken up and dried in air.
A wet filter paper was put in each Petri dish (diameter of 9 cm), and each treated leaf was put on the filter paper. Larvae of Plutella xylostella at 2nd to 3rd instar were charged and the dish was covered with a cap and kept in a constant temperature chamber with lighting at 28° C. Eight days after the charge, mortality was measured and each percent mortality was calculated.

[6] = tested on: Collectotrichum lagenarium; experiment: Test 3: protective value on cucumber inoculated with Collectotrichum lagenarium; type: in vivo, Collectotrichum lagenarium (cucumber plant, Suyo); details: 500 ppm, 10 ml sprayed; lesions six days after inoculation
Procedure: In each unglazed pot having a diameter of 9 cm, cucumber plant (Suyo) was cultured. At one leaf stage, 10 ml. of each solution of each active ingredient having a concentration of 500 ppm was sprayed by a spray gun. After maintaining the pot in a green-house at 24° to 25° C. for one day, each spore suspension of Collectotrichum lagenarium was sprayed. Six days after the inoculation, number of lesions on the first leaf of seedling was observed. The protective value was calculated as Test 1.

[7] = tested on: Tetranychus telarius (L); experiment: Test 6: mortality of larvae and adults of Tetranychus telarius on kidney bean leaf; type: in vivo; details: foliar, 72 h, leaf dipped, wettable powder of Composition No. 5, three days after treatment, read-out: Percent mortality
Procedure: Young seedling of kidney bean treated to cut off leaves except one primordial leaf was transplanted in a cup and about 30 of larvae and adults of Tetranychus telarius (L) were inoculated on the primordial leaf. This was dipped for 10 seconds in each solution obtained by diluting each wettable powder of Composition No. 5 containing each active ingredient with water at the concentration of 800 ppm and was dried in air and was kept in a constant temperature chamber with lighting at 28° C. Three days after the treatment, mortality was measured and each percent mortality was calculated as follows. [formula]

[8] = tested on: Venturia inaequalie; experiment: Test 5: minimum growth inhibition concentration on PDA medium; type: cell-based; details: fungus D: Venturia inaequalie
Procedure: (§1) A mixture of 9 ml. of a potato-glucose-agar medium (PDA medium) and 1 ml. of each active ingredient was poured into each Petri-dish to be solidified. […] The following fungi were used.

[9] = tested on: Alternaria solani; experiment: as above; type: cell-based; details: fungus C: Alternaria solani
Procedure: as §1

[10] = tested on: Diaporthe citri; experiment: as above; type: cell-based; details: fungus B: Diaporthe citri
Procedure: as §1

[11] = tested on: Phytophthora infestans; type: cell-based; details: PDA medium; fungus A: Phytophthora infestans
[12] = tested on: Plasmopara viticola; experiment: whole plant or invertebrate; type: in vivo, Plasmopara viticola (cucumber plant, Suyo); details: in Cucumis sativus, 144 h, read-out: Protective value
[13] = tested on: Botrytis cinerea; experiment: Test 9: protective value on cucumber inoculated with Botrytis cinerea; type: in vivo, Botrytis cinerea (cucumber plant, Suyo); details: 72 h, 250 ppm, 10 ml sprayed, lesion length three days after inoculation
Procedure: In each unglazed pot having a diameter of 9 cm, cucumber plant (Suyo) was cultured. At one leaf stage, 10 ml. of each solution of each active ingredient having a concentration of 250 ppm was sprayed by a spray gun. After maintaining the pot in a green-house at 24° to 25° C. for one day, a disc (punched agar disc) obtained by culturing Botrytis cinerea on a potato-glucose-agar medium (PDA medium) was put on the leaf of cucumber to inoculate them. Three days after the inoculation, lengths of lesions were measured and each protective value was calculated as Test 2.
In accordance with the test, except the concentration of the active ingredient was decreased, the comparative tests of Compound No. 7 and Reference compound were carried out.

| SMILES | pest or weed control at 100 ppm [1] [%] | mortality at 400 µg/dish [2] [%] | pest or weed control at 100 ppm [3] [%] | mortality at 800 ppm [5] [%] | pest or weed control at 500 ppm [4] [%] | other results |
| --- | --- | --- | --- | --- | --- | --- |
| O=[N+]([O-])c1cc(C(F)(F)F)cc([N+](=O)[O-])c1Nc1ncc(C(F)(F)F)cc1Cl [Compound No. 2] | 100 | 100 | 100 |  |  |  |
| O=[N+]([O-])c1cc([N+](=O)[O-])c(Nc2ncc(Cl)cc2Br)c(C(F)(F)F)c1 [Compound No. 62] | 100 | 100 |  | 100 |  | pest or weed control at 100 ppm ([4]; 100 ppm): 100% |
| O=[N+]([O-])c1cc(C(F)(F)F)cc([N+](=O)[O-])c1Nc1ncc(Cl)cc1Cl [compound 3, N-(3,5-dichloro-2-pyridyl)-2,6-dinitro-4-trifluoromethylaniline] | 100 | 100 | 100 |  | 100 | Protective value [6]: 100%; mortality at 800 ppm [7]: 100%; minimum growth inhibition concentration [8]: < 1; minimum growth inhibition concentration [9]: 10; minimum growth inhibition concentration [10]: 100; minimum growth inhibition concentration [11]: 100 |
| O=[N+]([O-])c1cc(C(F)(F)F)c(Cl)c([N+](=O)[O-])c1Nc1ncc(Cl)cc1Cl [compound 4, N-(3,5-dichloro-2-pyridyl)-2,6-dinitro-3-chloro-4-trifluoromethylaniline] | 93 |  | 100 |  |  | pest or weed control at 500 ppm [12]: 100%; Protective value [6]: 100%; minimum growth inhibition concentration [8]: < 1; minimum growth inhibition concentration [9]: 100; minimum growth inhibition concentration [10]: 100; minimum growth inhibition concentration [11]: > 100 |
| Cc1nc(Nc2c([N+](=O)[O-])cc(C(F)(F)F)c(Cl)c2[N+](=O)[O-])c(Cl)cc1Cl [compound 8, N-(3,5-dichloro-6-methyl-2-pyridyl)2,6-dinitro-3-chloro-4-trifluoromethylaniline] | 90 |  | 100 |  |  | Protective value [6]: 100% |
| Cc1c(Cl)cnc(Nc2c([N+](=O)[O-])cc(C(F)(F)F)c(Cl)c2[N+](=O)[O-])c1Cl [compound 12] |  |  | 100 |  |  | Protective value [6]: 75% |
| O=[N+]([O-])c1cc(C(F)(F)F)c(Cl)c([N+](=O)[O-])c1Nc1ccc(Cl)nc1Cl [compound 14] | 100 |  | 100 |  | 95 | Protective value [6]: 100%; pest or weed control at 250 ppm [13]: 95% |
| O=[N+]([O-])c1cc(C(F)(F)F)cc([N+](=O)[O-])c1Nc1c(Cl)cncc1Cl [compound 15, N-(3,5-dichloro-4-pyridyl)-2,6-dinitro-4-trifluoromethylaniline] | 100 |  | 100 | 100 | 100 | mortality at 800 ppm [7]: 100% |
| O=[N+]([O-])c1cc(C(F)(F)F)c(Cl)c([N+](=O)[O-])c1Nc1ncc(Br)cc1Cl [compound 20] |  |  | 100 |  |  | pest or weed control at 500 ppm [12]: 100% |
| O=[N+]([O-])c1cc(C(F)(F)F)cc([N+](=O)[O-])c1Nc1ncc(C(F)(F)F)cc1Br [compound 22] |  |  | 100 |  | 100 | mortality at 800 ppm [7]: 100%; pest or weed control at 250 ppm [13]: 100% |
| O=[N+]([O-])c1cc(C(F)(F)F)cc([N+](=O)[O-])c1Nc1nc(Cl)c(Br)cc1C(F)(F)F [compound 26] | 100 |  | 100 |  | 100 | pest or weed control at 500 ppm [12]: 93%; Protective value [6]: 90%; mortality at 800 ppm [7]: 100%; pest or weed control at 250 ppm [13]: 85% |
| O=[N+]([O-])c1cc(C(F)(F)F)c(Cl)c([N+](=O)[O-])c1Nc1nc(Cl)c(C(F)(F)F)cc1Br [compound 33] | 100 |  | 100 |  | 100 | pest or weed control at 500 ppm [12]: 85%; pest or weed control at 250 ppm [13]: 100% |
| O=[N+]([O-])c1cc(C(F)(F)F)cc([N+](=O)[O-])c1Nc1nc(Cl)c(C(F)(F)F)cc1Cl [compound 34] | 100 |  | 100 |  | 100 | pest or weed control at 500 ppm [12]: 83%; mortality at 800 ppm [7]: 100%; pest or weed control at 250 ppm [13]: 100% |
| O=[N+]([O-])c1cc([N+](=O)[O-])c(Nc2ccc(Cl)cn2)c(C(F)(F)F)c1 [compound 52] |  | 100 |  | 100 |  |  |
| O=[N+]([O-])c1cc([N+](=O)[O-])c(Nc2ccc(Br)cn2)c(C(F)(F)F)c1 [compound 54] | 90 | 100 |  |  |  | pest or weed control at 50 ppm [3]: 100% |
| O=[N+]([O-])c1cc([N+](=O)[O-])c(Nc2ncc(Cl)cc2Cl)c(C(F)(F)F)c1 [compound 60, N-(3,5-dichloro-2-pyridyl)-2,4-dinitro-6-trifluoromethylaniline] | 100 | 100 |  | 100 |  | pest or weed control at 50 ppm [3]: 100% |
| O=[N+]([O-])c1cc([N+](=O)[O-])c(Nc2ncc(Br)cc2Br)c(C(F)(F)F)c1 [compound 61] | 100 | 100 |  | 100 |  | pest or weed control at 50 ppm [3]: 100% |
| O=[N+]([O-])c1cc([N+](=O)[O-])c(Nc2ncc(Br)cc2Cl)c(C(F)(F)F)c1 [compound 63] | 100 | 100 |  | 100 |  |  |
| O=[N+]([O-])c1cc([N+](=O)[O-])c(Nc2ncc(C(F)(F)F)cc2Cl)c(C(F)(F)F)c1 [compound 65] | 100 | 100 |  | 100 |  | pest or weed control at 50 ppm [3]: 100% |
| O=[N+]([O-])c1cc([N+](=O)[O-])c(Nc2ccc(C(F)(F)F)c(Cl)n2)c(C(F)(F)F)c1 [compound 70] |  | 100 |  | 100 |  |  |
| Cc1nc(Nc2c([N+](=O)[O-])cc([N+](=O)[O-])cc2C(F)(F)F)c(Cl)c(C)c1Cl [compound 77, N-(3,5-dichloro-4,6-dimethyl-2-pyridyl)-2,4-dinitro-6-trifluoromethylaniline] |  | 100 |  | 100 |  |  |
| O=[N+]([O-])c1cc([N+](=O)[O-])c(Nc2ncccc2C(F)(F)F)c(C(F)(F)F)c1 [compound 81] |  | 100 |  | 100 |  | pest or weed control at 50 ppm [3]: 100% |
| CC(=O)N(c1ncc(C(F)(F)F)cc1Cl)c1c([N+](=O)[O-])cc(C(F)(F)F)c(Cl)c1[N+](=O)[O-] [compound 88, N-acetyl-N-(3-chloro-5-trifluoromethyl-2-pyridyl)-2,6-dinitro-3-chloro-4-trifluoromethylaniline] | 100 |  |  |  |  | pest or weed control at 500 ppm [12]: 100% |
